What follows are compounds tested against T1, human H4 receptor (Homo sapiens, UniProt Q9H3N8) (assay: [3H]Histamine binding on membranes of CHO cells stably expressing human H4 receptor).
T1 construct: expressed in transfected cells
Method in brief: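 Nonspecific signal was taken as that remaining with 10 μM JNJ 7777120 present. Assays contained 20 μg CHO-derived hH4 membrane protein in Tris/HCl–EDTA buffer (pH 7.4) and were terminated on polyethyleneimine-soaked filters, with bound tritium quantified by scintillation.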

Ki or IC50 activity class [µM]	SMILES
< 1	Brc1cccc(C(OCC2CNC2)c2nc3ccccc3[nH]2)c1 (stereo not drawn) [Example 502]
< 0.3	COc1ccccc1-c1cccc(C(OC2CCN(C)CC2)c2nc3ccccc3s2)c1 (stereo not drawn) [Example 96, 2-[(2′-methoxybiphenyl-3-yl)(1-methylpiperidin-4-yloxy)methyl]benzothiazole]
< 0.03	CN1CCC(OC(c2cccc(-c3cccc(F)c3)c2)c2nc3ccccc3s2)CC1 (stereo not drawn) [Example 139, 2-[(3′-fluorobiphenyl-3-yl)(1-methylpiperidin-4-yloxy)methyl]benzothiazole]
< 0.03	CN1CCC(OC(c2cccc(OCc3cccc(F)c3)c2)c2nc3ccccc3s2)CC1 (stereo not drawn) [Example 171, 2-[[3-(3-fluorobenzyloxy)phenyl](1-methylpiperidin-4-yloxy)methyl]benzothiazole]
< 0.03	CN1CCC(OC(c2cccc(SCCCNC(=N)N)c2)c2nc3ccccc3[nH]2)CC1 (stereo not drawn) [Example 441, N-(3-{3-[(1H-benzimidazol-2-yl)(1-methylpiperidin-4-yloxy)methyl]phenylsulfanyl}propyl)guanidine]
< 0.3	CN1CCC(OC(c2cccc(SCCCCCCN)c2)c2nc3ccccc3[nH]2)CC1 (stereo not drawn) [Example 451]
< 0.03	CN1CCC(NC(c2cccc(OCc3ccccc3)c2)c2nc3ccccc3s2)CC1 (stereo not drawn) [Example 101, [benzothiazol-2-yl(3-benzyloxyphenyl)methyl](1-methylpiperidin-4-yl)amine]
< 0.3	CN1CCC(OC(c2ccc(F)cc2)c2nc3ccccc3s2)CC1 (stereo not drawn) [Example 3, 2-[(4-fluorophenyl)(1-methylpiperidin-4-yloxy)methyl]benzothiazole]
< 0.3	CN1CCC(OC(c2cccc(-c3ccccc3)c2)c2nc3ccccc3[nH]2)CC1 (stereo not drawn) [Example 81, 2-[biphenyl-3-yl(1-methylpiperidin-4-yloxy)methyl]-1H-benzimidazole]
< 0.3	CCCOc1cccc(C(NC2CCN(C)CC2)c2nc3ccccc3s2)c1 (single isomer, unassigned) [Example 56, [benzothiazol-2-yl(3-propoxyphenyl)methyl](1-methylpiperidin-4-yl)amine]
< 0.3	Cc1ccc(C(OC2CCN(C)CC2)c2nc3ccccc3s2)s1 (stereo not drawn) [Example 19, 2-[(1-methylpiperidin-4-yloxy)(5-methylthiophen-2-yl)methyl]benzothiazole]
< 0.3	CN1CCC(OC(c2cccc(CCCCCCN)c2)c2nc3ccccc3[nH]2)CC1 (stereo not drawn) [Example 344, 6-{3-[(1H-benzimidazol-2-yl)(1-methylpiperidin-4-yloxy)methyl]phenyl}hexylamine]
< 0.3	CN1CCC(OC(c2cccc(N3CC4CC(N)CC4C3)c2)c2nc3ccccc3s2)CC1 (stereo not drawn) [Example 471]
< 0.3	CN1CCC(COC(c2cccc(C#CCCCN)c2)c2nc3cc(F)ccc3[nH]2)C1 (stereo not drawn) [Example 462]
< 0.03	CN1CCC(OC(c2cccc(SC(F)(F)F)c2)c2nc3ccccc3[nH]2)CC1 (stereo not drawn) [Example 517]
< 0.03	CN1CCC(OC(c2cccc(SCC3NC(N)=NC3=O)c2)c2nc3ccccc3[nH]2)CC1 (stereo not drawn) [Example 479, 2-amino-5-{3-[(1H-benzimidazol-2-yl)(1-methylpiperidin-4-yloxy)methyl]phenylsulfanylmethyl}-1,5-dihydroimidazol-4-one]
< 0.3	CN1CCC(OC(c2cccc(-c3ccccc3)c2)c2nc3ccccc3s2)CC1 (stereo not drawn) [Example 53, 2-[biphenyl-3-yl(1-methylpiperidin-4-yloxy)methyl]benzothiazole]
< 0.3	Cc1ccc(C(NC2CCN(C)CC2)c2nc3ccccc3s2)cc1 (stereo not drawn) [Example 36, (benzothiazol-2-yl-p-tolylmethyl)(1-methylpiperidin-4-yl)amine]
< 0.03	CN1CCC(OC(c2cccc(SCC3CNC(=O)O3)c2)c2nc3ccccc3[nH]2)CC1 (stereo not drawn) [Example 457]
< 0.3	CN1CCC(OC(c2cccc(OCCCN)c2)c2nc3ccccc3s2)CC1 (stereo not drawn) [Example 311, 3-{3-[benzothiazol-2-yl(1-methylpiperidin-4-yloxy)methyl]phenoxy}propylamine]
< 1	CN1CCC(OC(c2cccc(N3CC4CC(F)CC4C3)c2)c2nc3ccccc3s2)CC1 (stereo not drawn) [Example 492]
< 0.03	CN1CCC(OC(c2cccc(C#CCCNC(=N)N)c2)c2nc3ccccc3[nH]2)CC1 (stereo not drawn) [Example 393, N-(4-{3-[(1H-benzimidazol-2-yl)(1-methylpiperidin-4-yloxy)methyl]phenyl}but-3-ynyl)guanidine]

Ki or IC50 activity class [µM]	SMILES
< 0.03	CN1CCC(OC(c2cccc(CCCCN)c2)c2nc3ccccc3s2)CC1 (stereo not drawn) [Example 366, 4-{3-[benzothiazol-2-yl(1-methylpiperidin-4-yloxy)methyl]phenyl}butylamine]
< 0.3	Cc1cccc(C(NC2CCN(C)CC2)c2nc3ccccc3s2)c1 (stereo not drawn) [Example 21, [(benzothiazol-2-yl)(m-tolyl)methyl](1-methylpiperidin-4-yl)amine]
< 0.03	CN1CCC(OC(c2cccc(C#CCCCN)c2)c2nc3ccccc3[nH]2)CC1 (stereo not drawn) [Example 294, 5-{3-[(1H-benzimidazol-2-yl)(1-methylpiperidin-4-yloxy)methyl]phenyl}pent-4-ynylamine]
< 0.3	COCCOc1cccc(C(OC2CCN(C)CC2)c2nc3ccccc3s2)c1 (stereo not drawn) [Example 277, 2-[[3-(2-methoxyethoxy)phenyl](1-methylpiperidin-4-yloxy)methyl]benzothiazole]
< 0.3	CN1CCC(OC(c2nc3ccccc3s2)c2ccccc2F)CC1 (stereo not drawn) [Example 6, 2-[(2-fluorophenyl)(1-methylpiperidin-4-yloxy)methyl]benzothiazole]
< 0.3	CN1CCC(OC(c2cccc(N3CCOCC3)c2)c2nc3ccccc3s2)CC1 (stereo not drawn) [Example 243, 2-[(1-methylpiperidin-4-yloxy)(3-morpholin-4-yl-phenyl)methyl]benzothiazole]
< 1	COc1ccc(C(OC2CCN(C)CC2)c2nc3ccccc3s2)cc1 (stereo not drawn) [Example 14, 2-[(4-methoxyphenyl)(1-methylpiperidin-4-yloxy)methyl]benzothiazole]
< 1	CN1CCC(OC(c2cccc(OCCCCCN3CCN(C(=O)OC(C)(C)C)CC3)c2)c2nc3ccccc3[nH]2)CC1 (stereo not drawn) [Example 391, 4-(5-{3-[(1H-benzimidazol-2-yl)(1-methylpiperidin-4-yloxy)methyl]phenoxy}pentyl)piperazine-1-carboxylic acid tert-butyl ester]
< 0.03	CN1CCC(COC(c2cccc(Br)c2)c2nc3ccccc3s2)C1 (stereo not drawn) [Example 465]
< 0.3	CSc1cccc(-c2cccc(C(OC3CCN(C)CC3)c3nc4ccccc4s3)c2)c1 (stereo not drawn) [Example 128, 2-[(1-methylpiperidin-4-yloxy)(3′-methylsulfanylbiphenyl-3-yl)methyl]benzothiazole]
< 0.03	CN1CCC(OC(c2cccc(OCc3cc(F)ccc3F)c2)c2nc3ccccc3s2)CC1 (stereo not drawn) [Example 156, 2-[[3-(2,5-difluorobenzyloxy)phenyl](1-methylpiperidin-4-yloxy)methyl]benzothiazole]
< 0.3	CN1CCC(OC(c2nc3ccccc3[nH]2)c2cccs2)CC1 (stereo not drawn) [Example 546]
< 0.3	CN1CCC(OC(c2cccc(-c3ccc(F)cc3)c2)c2nc3ccccc3[nH]2)CC1 (stereo not drawn) [Example 115, 2-[(4′-fluorobiphenyl-3-yl)(1-methylpiperidin-4-yloxy)methyl]-1H-benzimidazole]
< 0.3	CN1CCC(OC(c2nc3ccccc3s2)c2ccc(F)cc2F)CC1 (stereo not drawn) [Example 12, 2-[(2,4-difluorophenyl)(1-methyl-piperidin-4-yloxy)methyl]-benzothiazole]
< 0.3	CN1CCC(OC(c2cccc(OC3CNC3)c2)c2nc3ccccc3s2)CC1 (stereo not drawn) [Example 402, 2-[[3-(azetidin-3-yloxy)phenyl](1-methylpiperidin-4-yloxy)methyl]benzothiazole]
< 0.03	CN1CCC(OC(c2cccc(SCCCCCN)c2)c2nc3ccccc3[nH]2)CC1 (stereo not drawn) [Example 381, 5-{3-[(1H-benzimidazol-2-yl)(1-methylpiperidin-4-yloxy)methyl]phenylsulfanyl}pentylamine]
< 0.3	CC(=O)OC1CCN(c2cccc(C(OC3CCN(C)CC3)c3nc4ccccc4s3)c2)CC1 (stereo not drawn) [Example 413, acetic acid 1-{3-[benzothiazol-2-yl(1-methylpiperidin-4-yloxy)methyl]phenyl}piperidin-4-yl ester]
< 0.3	CN1CCC(OC(c2cccc(I)c2)c2nc3ccccc3n2C)CC1 (stereo not drawn) [Example 472, 2-[(3-iodophenyl)(1-methylpiperidin-4-yloxy)methyl]-1-methyl-1H-benzimidazole]
< 0.03	Cc1ccc(C(OC2CCN(C)CC2)c2nc3ccccc3[nH]2)c(F)c1 (single isomer, unassigned) [Example 533, 2-[(2-fluoro-4-methylphenyl)(1-methylpiperidin-4-yloxy)methyl]-1H-benzimidazole]
< 1	CN1CCC(NC(c2cccc(Br)c2)c2nc3ccccc3[nH]2)CC1 (stereo not drawn) [Example 64, [(1H-benzimidazol-2-yl)(3-bromophenyl)methyl](1-methylpiperidin-4-yl)amine]
< 0.3	COc1cc(F)cc(C(NC2CCN(C)CC2)c2nc3ccccc3s2)c1 (stereo not drawn) [Example 43, [benzothiazol-2-yl(3-fluoro-5-methoxyphenyl)methyl](1-methylpiperidin-4-yl)amine]

SMILES	Ki or IC50 activity class [µM]
CN1CCC(OC(c2cccc(CCCCNC(=N)NC(=O)OC(C)(C)C)c2)c2nc3ccccc3[nH]2)CC1 (stereo not drawn) [Example 309, N-tert-butoxycarbonyl-N′-(4-{3-[(1H-benzimidazol-2-yl)(1-methylpiperidin-4-yloxy)methyl]phenyl}butyl)guanidine]	< 0.3
CN1CCC(OC(c2cccc(CCCCCNC(=N)NC(=O)OC(C)(C)C)c2)c2nc3ccccc3[nH]2)CC1 (stereo not drawn) [Example 335, N-tert-butoxycarbonyl-N′-(-{3-[(1H-benzimidazol-2-yl)(1-methylpiperidin-4-yloxy)methyl]phenyl}pentyl)guanidine]	< 0.3

From patent US8802664B2 (Bioproject, priority 2010, dated 2014)
